These compounds were tested on skin of the flexor surface of the forearm (assay: Topical vasoconstriction test (blanching, method of McKenzie and Stoughton)). Details: 0.03M solution in acetone/isopropylmyristate 90:10, 0.05 milliliter on 1 cm patch, occluded; patch removed after about six hours, blanching score one hour later; average of duplicate, except entries marked ** (duplicate experiment not conducted).
Assay type: in vivo
Procedure: TOPICAL VASOCONSTRICTION TEST
A topical vasoconstriction test was conducted using the general method of McKenzie, A.W. and R.B. Stoughton, Arch. Dermatol, 86, (1962), 608-10. The topical vasoconstriction test was done in order to evaluate the anti-inflammatory potency of the novel compounds of the present invention. A 0.03M solution of the test compound in acetone/isopropylmyristate 90:10 volume/volume was prepared. An aliquot of 0.05 milliliter was applied to a circular patch, one centimeter in diameter, which was in turn applied against the skin of the flexor surface of the forearm (previously cleansed with ethanol 95% and dried). This application was occluded with a water-impervious film. The patch was removed after about six hours and the blanching score was evaluated one hour later. Two control compounds were used at the same time and under the same conditions. The control compounds were hydrocortisone 17-valerate and cortienic acid 17-ethylcarbonate chloromethylester. The experiment was made in duplicate and the average estimation values for the blanching activity are reported in Table I. The left column of Table I indicates the 17α-substituent of the structure: [drawing 44]

Question: For `CCO[C@]1(C(=O)OCCl)CC[C@H]2[C@@H]3CCC4=CC(=O)CC[C@]4(C)[C@H]3[C@@H](O)C[C@@]21C` [-OCH₂H₅, chloromethyl 11β-hydroxy-17α-ethoxyandrost-4-en-3-one-17β-carboxylate], which “BLANCHING STUDIES Value (average estimation values for the blanching activity)” value (“BLANCHING STUDIES Value” below) is on record?
Answer: 0.75

Question: For `CCCO[C@]1(C(=O)OCCl)CC[C@H]2[C@@H]3CCC4=CC(=O)CC[C@]4(C)[C@H]3[C@@H](O)C[C@@]21C` [-OC₃H₇, Chloromethyl 11β-hydroxy-17α-propoxyandrost-4-en-3-one-17β-carboxylate], which “BLANCHING STUDIES Value” value is on record?
Answer: 1 **

Question: For `CCCCO[C@]1(C(=O)OCCl)CC[C@H]2[C@@H]3CCC4=CC(=O)CC[C@]4(C)[C@H]3[C@@H](O)C[C@@]21C` [-OC₄H₉, Chloromethyl 17α-butoxy-11β-hydroxyandrost-4-en-3-one-17β-carboxylate], which “BLANCHING STUDIES Value” value is on record?
Answer: 0.5

Question: With `CCOC(=O)O[C@]1(C(=O)OCCl)CC[C@H]2[C@@H]3CCC4=CC(=O)CC[C@]4(C)[C@H]3[C@@H](O)C[C@@]21C` [carbonate, cortienic acid 17-ethylcarbonate chloromethylester, reference compound] as the compound, how does the “BLANCHING STUDIES Value” value read?
Answer: 1.75

Question: “hydrocortisone 17-valerate [reference compound]” was tested. Which “BLANCHING STUDIES Value” value did it give?
Answer: 1.5

Same assay, conditions: previous study, no details given

Question: Which “activity (blanching), determined in a previous study” value does the source give for `CO[C@]1(C(=O)OCCl)CC[C@H]2[C@@H]3CCC4=CC(=O)CC[C@]4(C)[C@H]3[C@@H](O)C[C@@]21C` [-OCH₃, chloromethyl 11β-hydroxy-17α-methoxyandrost-4-en-3-one-17β-carboxylate] here?
Answer: * The 17-methoxy homologue was determined in a previous study to have low activity.

— patent EP0334853B1, “SOFT STEROIDS HAVING ANTI-INFLAMMATORY ACTIVITY” (BODOR, Nicholas S., priority 1987, dated 1989)
